Experimental data published in US7704971B2, “Uracil reductase inactivators” (SmithKlineBeecham Corporation, priority 1990, dated 2010).

How the values were obtained:
[1] = Effect on plasma FU level, mice; type: in vivo; conditions: 5-FU p.o. or i.p., EU 2 mg/kg i.p. 90 minutes prior to 5-FU
Procedure: Mice were dosed either orally (p.o.) or interperitoneally (i.p.) with 5-fU. 5-ethynyluracil (EU) at 2mg/kg was dosed i.p. 90 minutes prior to the 5-FU.
In addition, the usual variability in plasma FU in rats orally dosed with FU at 50 mg/kg was eliminated by EU pretreatment.

uracil reductase [2] = assay: Return of plasma uracil to normal after EU (species not specified); type: in vivo; conditions: after EU dose of maximum effect
Procedure: (§1) The maximum effect occurred at about 0.1 mg/kg p.o. in rats, at 0.5 to 1 mg/kg s.c. in mice, and at approximately 1 mg/kg intravenously (i.v.) in dogs and probably represents total inactivation of uracil reductase. These doses elevated mouse, dog, and rat plasma uracil from about 3 uM to about 50-60 uM. […] The ED50 equals 0.01 mg/kg.

uracil reductase [3] = assay: Inactivation of uracil reductase in vivo (plasma uracil and thymine), dogs
Procedure: as §1

uracil reductase [4] = molecular target: T1, uracil reductase (Mus musculus, UniProt Q8CHR6); assay: Inactivation of uracil reductase in vivo (plasma uracil and thymine), mice
T1 construct: from tissue; host or cells: whole animal (mouse), endogenous enzyme
T1 sequence (Q8CHR6 1-1025): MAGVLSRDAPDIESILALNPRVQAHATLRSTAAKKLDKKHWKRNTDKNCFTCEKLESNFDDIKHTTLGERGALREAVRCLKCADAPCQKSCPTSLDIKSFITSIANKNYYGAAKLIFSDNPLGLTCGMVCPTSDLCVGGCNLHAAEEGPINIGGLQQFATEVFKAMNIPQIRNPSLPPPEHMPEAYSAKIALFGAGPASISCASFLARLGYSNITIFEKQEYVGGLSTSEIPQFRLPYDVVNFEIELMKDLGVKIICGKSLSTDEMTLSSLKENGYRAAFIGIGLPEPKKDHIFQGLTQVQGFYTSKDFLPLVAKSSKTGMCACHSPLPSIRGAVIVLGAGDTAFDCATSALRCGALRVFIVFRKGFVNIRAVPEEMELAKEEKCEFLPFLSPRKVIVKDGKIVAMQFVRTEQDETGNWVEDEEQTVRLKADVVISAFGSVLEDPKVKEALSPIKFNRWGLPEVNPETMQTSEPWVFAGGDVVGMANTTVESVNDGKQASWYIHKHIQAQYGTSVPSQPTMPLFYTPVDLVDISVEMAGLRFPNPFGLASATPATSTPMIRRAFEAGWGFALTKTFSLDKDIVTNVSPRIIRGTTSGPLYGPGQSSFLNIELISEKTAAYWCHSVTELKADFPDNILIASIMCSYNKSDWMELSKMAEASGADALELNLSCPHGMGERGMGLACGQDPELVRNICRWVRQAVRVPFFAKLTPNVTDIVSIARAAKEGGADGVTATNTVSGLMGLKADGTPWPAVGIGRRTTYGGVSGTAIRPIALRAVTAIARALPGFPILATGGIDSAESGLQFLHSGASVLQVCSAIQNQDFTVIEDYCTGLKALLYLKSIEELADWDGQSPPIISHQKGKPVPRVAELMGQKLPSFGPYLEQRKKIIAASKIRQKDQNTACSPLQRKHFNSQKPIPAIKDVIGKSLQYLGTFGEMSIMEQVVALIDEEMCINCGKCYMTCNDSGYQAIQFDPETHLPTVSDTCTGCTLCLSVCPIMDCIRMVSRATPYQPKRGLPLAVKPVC
Procedure: as §1

uracil reductase [5] = assay: Inactivation of uracil reductase in vivo (plasma uracil and thymine), monkeys; conditions: monkeys dosed with small amounts
Procedure: as §1

With `C#Cc1c[nH]c(=O)[nH]c1=O` [5-ethynyluracil] the “plasma levels of 5-fluorouracil” value [1] was “increased”, the “half-life of plasma uracil decrease to normal” value (uracil reductase [2]) was 10 h and the “time over which plasma uracil decreased to normal” value (uracil reductase [2]) was 24 h. For the same molecule, the plasma uracil (uracil reductase [3]; dog, at dose of maximum effect, elevated from about 3 uM) was 50 to 60 µM, the “dose at which the maximum effect on plasma uracil and thymine occurred” value (uracil reductase [3]; dogs, intravenously (i.v.)) was “approximately 1 mg/kg” and the “dose at which the maximum effect on plasma uracil and thymine occurred” value (uracil reductase [4]; mice, s.c.) was 0.5 to 1 mg/kg. For the same molecule, the plasma uracil (uracil reductase [4]; mouse, at dose of maximum effect, elevated from about 3 uM) was 50 to 60 µM and the “plasma uracil and thymine levels” value (uracil reductase [5]) was “greatly elevated”.
